This is an account of results in patent US7053177B1, “Random peptides that bind to gastro-intestinal tract (GIT) transport receptors and related methods” (Cytogen Corporation, priority 1997, dated 2006).

For the assay, the system named is P100 membrane fraction of Caco-2 cells. The assay is described as follows: Dansylated peptide ELISA: relative binding of PAX2 and HAX42 peptides to P100 fractions (ratio to ZElan021). The following applies: ratio to ZElan021 = 1.00. As for the experimental part:
The peptides and proteins were analyzed by a dansylated peptide ELISA method in which 96 well plates were coated overnight at 4° C. with 100 μl/well coating protein (normally 100 μg/ml P100 membrane fraction) in 0.05M carbonate buffer pH9.6. Nonspecific binding was blocked using 200 μl/well, 2% Marvel/PBS for 2 hours at 37° C. prior to incubation with dansylated peptides. The plates were washed three times with PBS/0.05% Tween 20 and after each subsequent incubation step. […] A buffer blank control was included to ensure that background binding to plastic was not due to the antibodies used in the assay system. […] Plates were developed using 75 μl/well Bionostics TMB substrate and incubated for approximately 10 minutes. The developing reaction was stopped using Bionostics Red Stop solution (25 μl/well), and the optical density of the plates was read at 650 nm. […]

Ends that are not written are not given here. Peptide text beside a SMILES is read from it. * marks the point of attachment. Dansyl = CN(C)c1cccc2c(S(=O)(=O)*)cccc12; K(dns) = dansyl-lysine

For `CC(C)C[C@H](NC(=O)[C@H](CCCNC(=N)N)NC(=O)[C@H](CCCNC(=N)N)NC(=O)[C@H](CC(N)=O)NC(=O)[C@H](Cc1c[nH]cn1)NC(=O)[C@H](CO)NC(=O)[C@H](CO)NC(=O)[C@@H](N)CCCCNS(=O)(=O)c1cccc2c(N(C)C)cccc12)C(=O)N[C@@H](C)C(=O)N[C@H](C(=O)N[C@@H](CCCNC(=N)N)C(N)=O)[C@@H](C)O` [ZElan080] (H-K(Dansyl)SSHNRRLATR-NH2), where the note is “PAX2 peptides, first column”, the “Binding value at 20 μg/ml” value is recorded as 0.23 and the “Binding value at 50 μg/ml” value worked out at 0.84. Further, under “PAX2 peptides”, the “Binding value at 50 μg/ml (Jackson Ab)” value stood at 0.67 and the “Binding value at 50 μg/ml (Southern Ab)” value worked out at 0.38. The “Binding value at 50 μg/ml” value (PAX2 peptides, second column) is 0.45.

Regarding “H2N—K(dns)NCCGNGNSTG ({K(dns)}-NCCGNGNSTG-NH2; cysteine pairing not given here) [ZElan093]”, the “Binding value at 25 μg/ml” value (HAX42 peptides, first column) is 1.88; the “Binding value at 25 μg/ml” value (HAX42 peptides, second column) worked out at 1.37; the “Binding value at 25 μg/ml” value (HAX42 peptides, third column) was found to be 1.33.

Regarding “H2N—K(dns)SDHALGTNLRSDNAKEPGDY ({K(dns)}-SDHALGTNLRSDNAKEPGDY; not fully specified (C-terminus); printed as H2N—K(dns)SDHALGTNLRSDNAKEPGDY) [ZElan087]”, the “Binding value at 25 μg/ml” value is reported as 0.46 (HAX42 peptides, first column) and 0.44 (HAX42 peptides, second column).

`C[C@H](NC(=O)[C@H](CC(N)=O)NC(=O)[C@@H](NC(=O)[C@@H](N)CCCCNS(=O)(=O)c1cccc2c(N(C)C)cccc12)[C@@H](C)O)C(=O)N[C@@H](CCCCN)C(=O)N[C@@H](Cc1c[nH]cn1)C(=O)N[C@@H](CO)C(=O)N[C@@H](CO)C(=O)N[C@@H](Cc1c[nH]cn1)C(=O)N[C@@H](CC(N)=O)C(N)=O` [ZElan055] (H-K(Dansyl)TNAKHSSHN-NH2): the “Binding value at 20 μg/ml” value was determined as 0.99 (PAX2 peptides, first column) and 0.73 (PAX2 peptides, second column). In addition, the “Binding value at 50 μg/ml” value runs as follows: (PAX2 peptides, first column) 1.10; (PAX2 peptides, second column) 0.59.

Consider `CC[C@H](C)[C@H](NC(=O)[C@H](C)NC(=O)[C@H](CO)NC(=O)[C@@H]1CCCN1C(=O)[C@H](CCCNC(=N)N)NC(=O)[C@H](CCCNC(=N)N)NC(=O)[C@H](CC(N)=O)NC(=O)[C@H](Cc1ccccc1)NC(=O)[C@@H](NC(=O)[C@H](CCCCN)NC(=O)[C@H](CCCNC(=N)N)NC(=O)CNC(=O)[C@@H](NC(=O)[C@H](CO)NC(=O)[C@H](CC(N)=O)NC(=O)CNC(=O)[C@H](CC(N)=O)NC(=O)CNC(=O)[C@H](CS)NC(=O)[C@H](CS)NC(=O)[C@H](CC(N)=O)NC(=O)[C@H](Cc1ccc(O)cc1)NC(=O)[C@H](CC(=O)O)NC(=O)CNC(=O)[C@@H]1CCCN1C(=O)[C@@H](N)CCCCNS(=O)(=O)c1cccc2c(N(C)C)cccc12)[C@@H](C)O)C(C)C)C(=O)N1CCC[C@H]1C(=O)N[C@H](C(N)=O)[C@@H](C)O` [ZElan072] (H-K(Dansyl)PGDYNCCGNGNSTGRKVFNRRPSAIPT-NH2), for which the “Binding value at 20 μg/ml” value (HAX42 peptides) is 0.83. Moreover, the “Binding value at 50 μg/ml” value (HAX42 peptides, first column) is reported as 0.61 and the “Binding value at 50 μg/ml” value (HAX42 peptides, second column) is on record as 0.88.

Consider `CC(C)C[C@H](NC(=O)[C@H](CCCNC(=N)N)NC(=O)[C@H](C)NC(=O)[C@H](CC(N)=O)NC(=O)[C@H](Cc1c[nH]cn1)NC(=O)[C@H](CO)NC(=O)[C@H](CO)NC(=O)[C@@H](N)CCCCNS(=O)(=O)c1cccc2c(N(C)C)cccc12)C(=O)N[C@@H](CCCNC(=N)N)C(=O)N[C@H](C(=O)N[C@@H](CCCNC(=N)N)C(N)=O)[C@@H](C)O` [ZElan077] (H-K(Dansyl)SSHNARLRTR-NH2), for which, for the setting “PAX2 peptides, first column”, the “Binding value at 20 μg/ml” value stood at 0.20 and the “Binding value at 50 μg/ml” value is listed as 0.76. In addition, under “PAX2 peptides”, the “Binding value at 50 μg/ml (Jackson Ab)” value is recorded as 0.73 and the “Binding value at 50 μg/ml (Southern Ab)” value is on record as 0.52. For the same molecule, where the note is “PAX2 peptides, second column”, the “Binding value at 50 μg/ml” value stood at 0.54.

Take `CC(C)C[C@H](NC(=O)[C@H](CCCNC(=N)N)NC(=O)[C@H](CCCNC(=N)N)NC(=O)[C@H](CC(N)=O)NC(=O)[C@H](Cc1c[nH]cn1)NC(=O)[C@H](CO)NC(=O)[C@H](CO)NC(=O)[C@@H](N)CCCCNS(=O)(=O)c1cccc2c(N(C)C)cccc12)C(=O)N[C@@H](CCCNC(=N)N)C(=O)N[C@H](C(=O)N[C@@H](C)C(N)=O)[C@@H](C)O` [ZElan082] (H-K(Dansyl)SSHNRRLRTA-NH2): under “PAX2 peptides, first column”, the “Binding value at 20 μg/ml” value is given as 0.00 and the “Binding value at 50 μg/ml” value was 0.92. Moreover, the “Binding value at 50 μg/ml” value (PAX2 peptides, second column) is recorded as 0.40.

In the case of “H2N-K(dns)SDHALGTNLRSDNAKEPGDYNCCGNG-CONH2 ({K(dns)}-SDHALGTNLRSDNAKEPGDYNCCGNG-NH2; cysteine pairing not given here) [ZElan06O]”, the “Binding value at 20 μg/ml” value (HAX42 peptides) turned out to be 0.44. Moreover, the “Binding value at 50 μg/ml” value runs as follows: (HAX42 peptides, first column) 0.56; (HAX42 peptides, second column) 0.43.

Turning to “H2N—K(dns)PGDYNCCGNG ({K(dns)}-PGDYNCCGNG-NH2; cysteine pairing not given here) [ZElan092]”, the “Binding value at 25 μg/ml” value is, setting by setting: (HAX42 peptides, first column) 1.41; (HAX42 peptides, second column) 1.90; (HAX42 peptides, third column) 0.91.

For the molecule “H2N—K(dns)SDHALGTNLRSDNAK ({K(dns)}-SDHALGTNLRSDNAK; not fully specified (C-terminus); printed as H2N—K(dns)SDHALGTNLRSDNAK) [ZElan089]”, the “Binding value at 25 μg/ml” value (HAX42 peptides, first column) was determined as 0.55; the “Binding value at 25 μg/ml” value (HAX42 peptides, second column) was 0.44; the “Binding value at 25 μg/ml” value (HAX42 peptides, third column) worked out at 0.49.

In the case of `CC(C)C[C@H](NC(=O)[C@H](C)NC(=O)[C@H](Cc1c[nH]cn1)NC(=O)[C@H](CC(=O)O)NC(=O)[C@H](CO)NC(=O)[C@@H](N)CCCCNS(=O)(=O)c1cccc2c(N(C)C)cccc12)C(=O)NCC(=O)N[C@H](C(=O)N[C@@H](CC(N)=O)C(=O)N[C@@H](CC(C)C)C(=O)N[C@@H](CCCNC(=N)N)C(=O)N[C@@H](CO)C(=O)N[C@@H](CC(=O)O)C(=O)N[C@@H](CC(N)=O)C(=O)N[C@@H](C)C(=O)N[C@@H](CCCCN)C(=O)N[C@@H](CCC(=O)O)C(=O)N1CCC[C@H]1C(=O)NCC(N)=O)[C@@H](C)O` [ZElan062] (H-K(Dansyl)SDHALGTNLRSDNAKEPG-NH2), the “Binding value at 20 μg/ml” value (HAX42 peptides) was found to be 0.11. Moreover, the “Binding value at 50 μg/ml” value turned out to be 0.42 (HAX42 peptides, first column) and 0.34 (HAX42 peptides, second column).

Regarding `CC(C)C[C@H](NC(=O)[C@H](CCCNC(=N)N)NC(=O)[C@H](CCCNC(=N)N)NC(=O)[C@H](CC(N)=O)NC(=O)[C@H](Cc1c[nH]cn1)NC(=O)[C@H](CO)NC(=O)[C@H](C)NC(=O)[C@@H](N)CCCCNS(=O)(=O)c1cccc2c(N(C)C)cccc12)C(=O)N[C@@H](CCCNC(=N)N)C(=O)N[C@H](C(=O)N[C@@H](CCCNC(=N)N)C(N)=O)[C@@H](C)O` [ZElan073] (H-K(Dansyl)ASHNRRLRTR-NH2), under “PAX2 peptides, first column”, the “Binding value at 20 μg/ml” value worked out at 0.07 and the “Binding value at 50 μg/ml” value was −0.11. Where the note is “PAX2 peptides”, the “Binding value at 50 μg/ml (Jackson Ab)” value is on record as 0.66 and the “Binding value at 50 μg/ml (Southern Ab)” value was 0.49. Under “PAX2 peptides, second column”, the “Binding value at 50 μg/ml” value was found to be 0.49.

In the case of `CC(C)C[C@H](NC(=O)[C@H](CCCNC(=N)N)NC(=O)[C@H](CCCNC(=N)N)NC(=O)[C@H](CC(N)=O)NC(=O)[C@H](C)NC(=O)[C@H](CO)NC(=O)[C@H](CO)NC(=O)[C@@H](N)CCCCNS(=O)(=O)c1cccc2c(N(C)C)cccc12)C(=O)N[C@@H](CCCNC(=N)N)C(=O)N[C@H](C(=O)N[C@@H](CCCNC(=N)N)C(N)=O)[C@@H](C)O` [ZElan075] (H-K(Dansyl)SSANRRLRTR-NH2), under “PAX2 peptides, first column”, the “Binding value at 20 μg/ml” value amounted to 0.13 and the “Binding value at 50 μg/ml” value is 0.52. Besides, under “PAX2 peptides”, the “Binding value at 50 μg/ml (Jackson Ab)” value is given as 0.47 and the “Binding value at 50 μg/ml (Southern Ab)” value worked out at 0.32. The “Binding value at 50 μg/ml” value (PAX2 peptides, second column) is 0.38.

Regarding `CC(C)C[C@H](NC(=O)[C@H](CCCNC(=N)N)NC(=O)[C@H](CCCNC(=N)N)NC(=O)[C@@H](N)CCCCNS(=O)(=O)c1cccc2c(N(C)C)cccc12)C(=O)N[C@@H](CCCNC(=N)N)C(=O)N[C@H](C(=O)N[C@@H](CCCNC(=N)N)C(N)=O)[C@@H](C)O` [ZElan058, H2N-K(dns)RRLRTR-CONH2] (H-K(Dansyl)RRLRTR-NH2), for the setting “PAX2 peptides, first column”, the “Binding value at 20 μg/ml” value came out at 0.05 and the “Binding value at 50 μg/ml” value turned out to be 0.47. Also, the “Binding value at 50 μg/ml” value (PAX2 peptides, second column) came out at 0.16.

For `CC(C)C[C@H](NC(=O)[C@H](CCCNC(=N)N)NC(=O)[C@H](CCCNC(=N)N)NC(=O)[C@@H](N)CCCCNS(=O)(=O)c1cccc2c(N(C)C)cccc12)C(=O)N[C@@H](CCCNC(=N)N)C(=O)N[C@H](C(=O)N[C@@H](CCCNC(=N)N)C(=O)N[C@@H](CO)C(=O)N[C@@H](CCCNC(=N)N)C(N)=O)[C@@H](C)O` [ZElan057] (H-K(Dansyl)RRLRTRSR-NH2), the “Binding value at 20 μg/ml” value (PAX2 peptides, first column) is given as 0.08. Also, the “Binding value at 50 μg/ml” value runs as follows: (PAX2 peptides, first column) 0.56; (PAX2 peptides, second column) 0.25.
